# According to patent US4735953A, “Pharmaceutical preparation for learning stimulation and memory improvement” (priority 1986, dated 1988):
# Where a name gives a salt, the structure may show the parent alone.
# What was measured:
# [1] = tested on: learning ability of mice in a shuttle chamber; experiment: Learning ability of mice in a shuttle chamber; format: in vivo, mouse; details: mice
# [2] = tested on: learning ability of rats preliminarily sorted out for poor learning ability; experiment: Active avoidance learning in a shuttle chamber, rats sorted out for poor learning ability; format: in vivo, rat; details: poorly learning rats
# Text: (§1) In these experiments rats are taught to avoid an electric shock by escaping into a next chamber communicating with the first chamber by means of a special opening--a door. An electric current is applied to the chamber door consisting of metal plates. A conditional irritator is a light signal together with a sound click. The learning series consisted of 50 combinations. The number of combinations necessary for the animal's learning to escape into another chamber in response to the conditional signal was determined. Five correct responses out of 6 where regarded as the proof of stability of the acquired knowledge and were denoted as a "learning criterion". After 7 days the educational procedure was repeated, and again the number of combinations necessary to acquire the "learning criterion" was determined. In the case of difference between the first and second readings the percentage of retention of the acquired knowledge was calculated.
# (§2) In this experiment the effect of the preparation according to the present invention and prior art preparations was separately evaluated for the purpose of comparison on well-learning and on specially selected poorly learning rats. […] To the poorly learning rats the animals were assigned which reached no "learning criterion" in the teaching series of 50 combinations, or, in other words, a stable knowledge of active avoidance was not worked out in them. […] The preparation according to the present invention and the prior art comparison preparations were administered before the first teaching series or thereafter.
# (§3) Also studied were the effects produced upon a single and repeated administration of the preparation according to the present invention for 14 days.
# [3] = tested on: learning ability of rats in a shuttle chamber; experiment: Active avoidance learning in a shuttle chamber, rats; format: in vivo, rat; details: rats
# Text: as §1, §2, §3
# [4] = tested on: rabbit's brain hemispheres; experiment: Amplitude of induced potential in brain hemispheres (acoustic irritation); format: in vivo; details: rabbits
# Method: (§4) In the third series of experiments the effect of the preparation according to the present invention on the functional brain asymmetry was studied. The experiments were carried out on rabbits with electrodes implanted in the brain. The electrodes under nembutal narcosis (40 mg/kg) were implanted strictly symmetrically into the bearing zone of the temporal cortex of the right and left hemispheres on its lateral surface, whereas the indifferent electrode was secured to the nasal bones of a rabbit's skull. The acoustic irritation was applied through earphones. As the acoustic irritation a sound click caused by a square-shaped pulse from an electronic stimulator with a frequency of 0.1-0.2 Hz was used; the click intensity was adjusted within the range of from 5 to 80 Db. The amplification of the taken-off biopotentials was effected on an electroencephalograph; the induced potentials were obtained by means of an analyzer. 100 experiments on 20 animals were thus conducted; the interval between experiments on one animal was 7 days. The amplitude and form of the induced potential were determined. The asymmetry factor (Kas) was calculated by the formula: [formula] Ar --amplitude of the induced potential of the […] hemisphere, μV;
# (§5) A1 --amplitude of the induced potential of the left hemisphere.
# (§6) The test preparations were administered hypodermally in the form of 0.5-1.5% aqueous solutions 20 minutes before the beginning of the measurements.
# [5] = tested on: cerebral cortex of rabbits; experiment: Asymmetry factor by induced potential in the hearing zone of the cerebral cortex; format: in vivo, rabbit
# Method: as §4, §5, §6
# [6] = hypodermally 1 mg/kg, 12 day (retention)
# [7] = hypodermally 3 mg/kg, 12 day (retention)
# [8] = hypodermally 30 mg/kg, 12 day (retention)
# [9] = hypodermally 100 mg/kg, 1st day
# [10] = hypodermally 100 mg/kg, 12 day (retention)
# [11] = hypodermally 300 mg/kg, 1st day
# [12] = hypodermally 300 mg/kg, 12 day (retention)
# [13] = per os 300 mg/kg, 12 day (retention)
# [14] = hypodermally 0.03 mg/kg, 1st day
# [15] = hypodermally 0.03 mg/kg, 12 day (retention)
# [16] = hypodermally 0.1 mg/kg, 1st day
# [17] = hypodermally 0.1 mg/kg, 12 day (retention)
smiles,measurement,setting,value
Nc1ccncc1 [4-aminopyridine],retention of the knowledge of active avoidance (in words),[1],does not affect the retention of the knowledge of active avoidance
same,teaching (in words),[1],facilitates teaching
same,"% of avoidance reactions, group I","[1]; hypodermally 1 mg/kg, 1st day",17%
same,"% of avoidance reactions, group II","[1]; hypodermally 1 mg/kg, 1st day",21%
same,"% of avoidance reactions, group III","[1]; hypodermally 1 mg/kg, 1st day",38%
same,"% of avoidance reactions, group IV","[1]; hypodermally 1 mg/kg, 1st day",51%
same,"% of avoidance reactions, group V","[1]; hypodermally 1 mg/kg, 1st day",55%
same,"% of avoidance reactions, group VI","[1]; hypodermally 1 mg/kg, 1st day",60%
same,"% of avoidance reactions, group I",[1]; [6],48%
same,"% of avoidance reactions, group II",[1]; [6],70%
same,"% of avoidance reactions, group III",[1]; [6],72%
same,"% of avoidance reactions, group IV",[1]; [6],71%
same,"% of avoidance reactions, group V",[1]; [6],70%
same,"% of avoidance reactions, group VI",[1]; [6],75%
same,"% of avoidance reactions, group I","[1]; hypodermally 3 mg/kg, 1st day",20%
same,"% of avoidance reactions, group II","[1]; hypodermally 3 mg/kg, 1st day",30%
same,"% of avoidance reactions, group III","[1]; hypodermally 3 mg/kg, 1st day",54%
same,"% of avoidance reactions, group IV","[1]; hypodermally 3 mg/kg, 1st day",61%
same,"% of avoidance reactions, group V","[1]; hypodermally 3 mg/kg, 1st day",79%
same,"% of avoidance reactions, group VI","[1]; hypodermally 3 mg/kg, 1st day",82%
same,"% of avoidance reactions, group I",[1]; [7],46%
same,"% of avoidance reactions, group II",[1]; [7],73%
same,"% of avoidance reactions, group III",[1]; [7],74%
same,"% of avoidance reactions, group IV",[1]; [7],74%
same,"% of avoidance reactions, group V",[1]; [7],80%
same,"% of avoidance reactions, group VI",[1]; [7],80%
same,% of knowledge retention,[2]; hypodermally 2 mg/kg,40.9%
same,"Number of combinations till appearance of ""learning criterion"", I teaching",[2]; hypodermally 2 mg/kg,32.5 ± 2.8
same,"Number of combinations till appearance of ""learning criterion"", II-checking of retention of knowledge",[2]; hypodermally 2 mg/kg,19.2 ± 1.7
same,Number of untaught animals in the group,[2]; hypodermally 2 mg/kg,11/20
same,"Number of combinations to reach the ""learning criterion"" in II teaching series (after 7 days)",[3]; hypodermally 2 mg/kg,7.4 ± 1.2
same,"Number of combinations to reach the ""learning criterion"" in the I teaching series",[3]; hypodermally 2 mg/kg,17.8 ± 1.2
same,Number of non-taught animals in the group,[3]; hypodermally 2 mg/kg,0/20
same,Percentage knowledge retention,[3]; hypodermally 2 mg/kg,60%
same,amplitude of induced potentials (in words),[4],increased amplitude of the induced potential
same,"Change of amplitude of induced potential, % of the control, left hemisphere",[4]; hypodermally 2 mg/kg,140%
same,"Change of amplitude of induced potential, % of the control, right hemisphere",[4]; hypodermally 2 mg/kg,175%
same,"Mean value of amplitude of induced potential, %",[4]; hypodermally 2 mg/kg,160%
same,asymmetry factor (in words),[5],did not change or reduced the factor of asymmetry
same,"Asymmetry factor, Preparation","[5]; hypodermally 2 mg/kg, control 0.26 ± 0.06",0.12 ± 0.02
"CC(C)(CO)[C@@H](O)C(=O)NCCCC(=O)O [Calcium homopantothenate, calcium salt of homopantothenic acid]",learning (in words),[1]; 100 mg/kg,improving effect on learning only in a high dose
same,effect of hypodermal vs per os administration (in words),[1]; hypodermal vs per os,substantially more pronounced effect than its per os administration
same,"% of avoidance reactions, group I","[1]; hypodermally 30 mg/kg, 1st day",21%
same,"% of avoidance reactions, group II","[1]; hypodermally 30 mg/kg, 1st day",23%
same,"% of avoidance reactions, group III","[1]; hypodermally 30 mg/kg, 1st day",40%
same,"% of avoidance reactions, group IV","[1]; hypodermally 30 mg/kg, 1st day",55%
same,"% of avoidance reactions, group V","[1]; hypodermally 30 mg/kg, 1st day",58%
same,"% of avoidance reactions, group VI","[1]; hypodermally 30 mg/kg, 1st day",60%
same,"% of avoidance reactions, group I",[1]; [8],55%
same,"% of avoidance reactions, group II",[1]; [8],80%
same,"% of avoidance reactions, group III",[1]; [8],82%
same,"% of avoidance reactions, group IV",[1]; [8],85%
same,"% of avoidance reactions, group V",[1]; [8],84%
same,"% of avoidance reactions, group VI",[1]; [8],88%
same,"% of avoidance reactions, group I",[1]; [9],20%
same,"% of avoidance reactions, group II",[1]; [9],31%
same,"% of avoidance reactions, group III",[1]; [9],40%
same,"% of avoidance reactions, group IV",[1]; [9],55%
same,"% of avoidance reactions, group V",[1]; [9],58%
same,"% of avoidance reactions, group VI",[1]; [9],60%
same,"% of avoidance reactions, group I",[1]; [10],60%
same,"% of avoidance reactions, group II",[1]; [10],90%
same,"% of avoidance reactions, group III",[1]; [10],90%
same,"% of avoidance reactions, group IV",[1]; [10],89%
same,"% of avoidance reactions, group V",[1]; [10],90%
same,"% of avoidance reactions, group VI",[1]; [10],88%
same,"% of avoidance reactions, group I",[1]; [11],21%
same,"% of avoidance reactions, group II",[1]; [11],32%
same,"% of avoidance reactions, group III",[1]; [11],40%
same,"% of avoidance reactions, group IV",[1]; [11],50%
same,"% of avoidance reactions, group V",[1]; [11],51%
same,"% of avoidance reactions, group VI",[1]; [11],55%
same,"% of avoidance reactions, group I",[1]; [12],53%
same,"% of avoidance reactions, group II",[1]; [12],75%
same,"% of avoidance reactions, group III",[1]; [12],76%
same,"% of avoidance reactions, group IV",[1]; [12],76%
same,"% of avoidance reactions, group V",[1]; [12],74%
same,"% of avoidance reactions, group VI",[1]; [12],74%
same,"% of avoidance reactions, group I","[1]; per os 300 mg/kg, 1st day",21%
same,"% of avoidance reactions, group II","[1]; per os 300 mg/kg, 1st day",22%
same,"% of avoidance reactions, group III","[1]; per os 300 mg/kg, 1st day",32%
same,"% of avoidance reactions, group IV","[1]; per os 300 mg/kg, 1st day",42%
same,"% of avoidance reactions, group V","[1]; per os 300 mg/kg, 1st day",43%
same,"% of avoidance reactions, group VI","[1]; per os 300 mg/kg, 1st day",51%
same,"% of avoidance reactions, group I",[1]; [13],50%
same,"% of avoidance reactions, group II",[1]; [13],72%
same,"% of avoidance reactions, group III",[1]; [13],73%
same,"% of avoidance reactions, group IV",[1]; [13],78%
same,"% of avoidance reactions, group V",[1]; [13],77%
same,"% of avoidance reactions, group VI",[1]; [13],80%
COc1ccc2c3c1O[C@H]1C[C@@H](O)C=C[C@@]31CCN(C)C2 [Galantamine],"Asymmetry factor, Preparation","[5]; hypodermally 3 mg/kg, control 0.26 ± 0.03",0.19 ± 0.03
"CNC(=O)Oc1ccc2c(c1)[C@]1(C)CCN(C)[C@@H]1N2C [Physostigmine, physostigmine]",teaching of animals (in words),[1]; 0.03 mg/kg,slightly improves
same,teaching of animals (in words),[1]; 0.1 mg/kg,impairs teaching of animals
same,"% of avoidance reactions, group I",[1]; [14],20%
same,"% of avoidance reactions, group II",[1]; [14],21%
same,"% of avoidance reactions, group III",[1]; [14],26%
same,"% of avoidance reactions, group IV",[1]; [14],35%
same,"% of avoidance reactions, group V",[1]; [14],49%
same,"% of avoidance reactions, group VI",[1]; [14],57%
same,"% of avoidance reactions, group I",[1]; [15],50%
same,"% of avoidance reactions, group II",[1]; [15],80%
same,"% of avoidance reactions, group III",[1]; [15],83%
same,"% of avoidance reactions, group IV",[1]; [15],87%
same,"% of avoidance reactions, group V",[1]; [15],90%
same,"% of avoidance reactions, group VI",[1]; [15],89%
same,"% of avoidance reactions, group I",[1]; [16],18%
same,"% of avoidance reactions, group II",[1]; [16],4%
same,"% of avoidance reactions, group III",[1]; [16],7%
same,"% of avoidance reactions, group IV",[1]; [16],18%
same,"% of avoidance reactions, group V",[1]; [16],23%
same,"% of avoidance reactions, group VI",[1]; [16],38%
same,"% of avoidance reactions, group I",[1]; [17],39%
same,"% of avoidance reactions, group II",[1]; [17],60%
same,"% of avoidance reactions, group III",[1]; [17],70%
same,"% of avoidance reactions, group IV",[1]; [17],70%
same,"% of avoidance reactions, group V",[1]; [17],71%
same,"% of avoidance reactions, group VI",[1]; [17],70%
same,% of knowledge retention,[2]; hypodermally 0.04 mg/kg,10%
same,"Number of combinations till appearance of ""learning criterion"", I teaching",[2]; hypodermally 0.04 mg/kg,46 ± 3.1
same,"Number of combinations till appearance of ""learning criterion"", II-checking of retention of knowledge",[2]; hypodermally 0.04 mg/kg,31.4 ± 1.8
same,Number of untaught animals in the group,[2]; hypodermally 0.04 mg/kg,12/20
same,"Number of combinations to reach the ""learning criterion"" in II teaching series (after 7 days)",[3]; hypodermally 0.04 mg/kg,6.1 ± 0.9
same,"Number of combinations to reach the ""learning criterion"" in the I teaching series",[3]; hypodermally 0.04 mg/kg,21.9 ± 2.5
same,Number of non-taught animals in the group,[3]; hypodermally 0.04 mg/kg,1/20
same,Percentage knowledge retention,[3]; hypodermally 0.04 mg/kg,72%
same,asymmetry factor (in words),[5],did not change or reduced the factor of asymmetry
same,"Asymmetry factor, Preparation","[5]; hypodermally 0.04 mg/kg, control 0.22 ± 0.01",0.11 ± 0.01
